Data as given in US8691753B2 (priority 2009, dated 2014).
Where two headings read alike, the source gives them in different places.

Experiments:
Assay type in all cases: biochemical
MMP-8h = MMP-8h (Homo sapiens (Human), UniProt P22894); assay: Inhibition constant (Ki) on MMP-8h; conditions: human MMP-8
MMP-2h = MMP-2h (Homo sapiens (Human), UniProt P08253); assay: Inhibition constant (Ki) on MMP-2h; conditions: human MMP-2
Source text: (§1) The inhibition constant Ki of these compounds has been determined according to the protocol described by Devel et al, 2006, J. Biol. Chem. (7).
(§2) In this table I and also in table II below, “h” corresponds to human. All of the compounds have therefore been evaluated on human MMPs.

MMP-9h = MMP-9h (Homo sapiens (Human), UniProt P14780); assay: Inhibition constant (Ki) on MMP-9h; conditions: human MMP-9
Chain of MMP-9h (P14780 94-707): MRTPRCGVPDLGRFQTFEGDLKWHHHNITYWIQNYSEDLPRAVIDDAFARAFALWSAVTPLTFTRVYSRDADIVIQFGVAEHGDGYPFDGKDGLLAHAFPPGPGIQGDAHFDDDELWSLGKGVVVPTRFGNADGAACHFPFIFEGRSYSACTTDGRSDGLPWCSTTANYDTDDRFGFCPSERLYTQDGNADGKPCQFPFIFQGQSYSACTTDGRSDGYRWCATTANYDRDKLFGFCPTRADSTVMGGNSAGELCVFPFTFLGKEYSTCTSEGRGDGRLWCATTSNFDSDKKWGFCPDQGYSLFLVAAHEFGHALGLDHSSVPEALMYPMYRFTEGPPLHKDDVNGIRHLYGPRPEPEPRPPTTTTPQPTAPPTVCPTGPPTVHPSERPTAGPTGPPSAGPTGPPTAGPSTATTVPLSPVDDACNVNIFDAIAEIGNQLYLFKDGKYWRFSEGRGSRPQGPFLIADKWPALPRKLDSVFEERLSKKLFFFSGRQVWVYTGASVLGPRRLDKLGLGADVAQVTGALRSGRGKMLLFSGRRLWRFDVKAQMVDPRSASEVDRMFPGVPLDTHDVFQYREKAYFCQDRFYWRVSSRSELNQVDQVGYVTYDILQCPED
Source text: as §1, §2

MMP-13h = MMP-13h (Homo sapiens (Human), UniProt P45452); assay: Inhibition constant (Ki) on MMP-13h; conditions: human MMP-13
Source text: as §1, §2

MMP-14h = MMP-14h (Homo sapiens (Human), UniProt P50281); assay: Inhibition constant (Ki) on MMP-14h; conditions: human MMP-14
Source text: as §1, §2

MMP-10h = MMP-10h (Homo sapiens (Human), UniProt P09238); assay: Inhibition constant (Ki) on MMP-10h; conditions: human MMP-10
Chain of MMP-10h (P09238 99-476): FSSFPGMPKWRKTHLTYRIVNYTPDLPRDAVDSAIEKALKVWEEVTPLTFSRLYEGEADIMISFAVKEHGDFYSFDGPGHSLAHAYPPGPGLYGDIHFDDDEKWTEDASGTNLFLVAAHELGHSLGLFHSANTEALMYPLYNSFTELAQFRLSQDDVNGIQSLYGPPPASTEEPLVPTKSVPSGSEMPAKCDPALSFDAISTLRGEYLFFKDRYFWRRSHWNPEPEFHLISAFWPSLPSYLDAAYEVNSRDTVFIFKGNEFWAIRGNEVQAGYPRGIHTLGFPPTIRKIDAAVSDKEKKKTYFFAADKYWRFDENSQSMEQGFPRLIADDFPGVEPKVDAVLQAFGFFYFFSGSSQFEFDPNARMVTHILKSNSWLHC

MMP-12h = MMP-12h (Homo sapiens (Human), UniProt P39900); assay: Inhibition constant (Ki) on MMP-12h; conditions: human MMP-12
Chain of MMP-12h (P39900 106-470): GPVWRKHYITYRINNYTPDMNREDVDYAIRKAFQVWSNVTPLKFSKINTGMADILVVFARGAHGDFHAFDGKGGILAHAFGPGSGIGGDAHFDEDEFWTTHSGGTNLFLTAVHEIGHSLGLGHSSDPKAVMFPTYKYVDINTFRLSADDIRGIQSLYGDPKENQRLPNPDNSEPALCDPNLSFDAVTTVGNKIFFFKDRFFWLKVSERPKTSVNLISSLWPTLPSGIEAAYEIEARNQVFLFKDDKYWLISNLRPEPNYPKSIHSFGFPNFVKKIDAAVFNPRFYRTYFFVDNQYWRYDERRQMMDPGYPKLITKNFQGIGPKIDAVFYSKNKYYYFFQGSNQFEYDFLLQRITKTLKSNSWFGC

MMP-3h = MMP-3h (Homo sapiens (Human), UniProt P08254); assay: Inhibition constant (Ki) on MMP-3h; conditions: human MMP-3
Chain of MMP-3h (P08254 100-477): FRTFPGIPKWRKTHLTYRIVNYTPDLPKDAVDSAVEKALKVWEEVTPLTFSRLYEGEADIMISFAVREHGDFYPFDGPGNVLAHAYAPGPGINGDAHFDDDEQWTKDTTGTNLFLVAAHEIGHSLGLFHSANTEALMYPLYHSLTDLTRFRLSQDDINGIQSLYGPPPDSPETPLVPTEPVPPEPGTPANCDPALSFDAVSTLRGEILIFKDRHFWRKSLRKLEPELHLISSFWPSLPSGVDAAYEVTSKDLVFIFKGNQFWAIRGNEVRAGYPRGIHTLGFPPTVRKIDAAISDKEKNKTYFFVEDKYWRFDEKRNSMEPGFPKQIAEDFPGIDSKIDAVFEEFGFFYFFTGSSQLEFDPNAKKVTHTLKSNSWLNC
Source text: as §1, §2

Chain of MMP-2h (P08253 110-660): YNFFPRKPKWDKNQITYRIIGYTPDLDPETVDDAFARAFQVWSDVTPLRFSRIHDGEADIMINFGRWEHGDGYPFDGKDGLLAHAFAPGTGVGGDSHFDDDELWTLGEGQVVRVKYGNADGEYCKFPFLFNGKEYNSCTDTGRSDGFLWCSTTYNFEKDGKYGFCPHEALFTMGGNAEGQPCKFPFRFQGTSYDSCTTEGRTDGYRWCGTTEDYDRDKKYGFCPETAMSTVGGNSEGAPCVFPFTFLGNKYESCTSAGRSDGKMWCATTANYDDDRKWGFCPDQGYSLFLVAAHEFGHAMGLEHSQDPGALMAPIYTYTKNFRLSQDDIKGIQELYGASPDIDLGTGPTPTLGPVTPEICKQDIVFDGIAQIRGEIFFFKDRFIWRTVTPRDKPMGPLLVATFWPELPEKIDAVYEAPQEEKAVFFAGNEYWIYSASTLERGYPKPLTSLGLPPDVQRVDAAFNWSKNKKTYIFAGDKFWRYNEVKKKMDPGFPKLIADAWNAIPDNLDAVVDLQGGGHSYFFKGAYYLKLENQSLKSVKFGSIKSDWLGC
Chain of MMP-8h (P22894 101-467): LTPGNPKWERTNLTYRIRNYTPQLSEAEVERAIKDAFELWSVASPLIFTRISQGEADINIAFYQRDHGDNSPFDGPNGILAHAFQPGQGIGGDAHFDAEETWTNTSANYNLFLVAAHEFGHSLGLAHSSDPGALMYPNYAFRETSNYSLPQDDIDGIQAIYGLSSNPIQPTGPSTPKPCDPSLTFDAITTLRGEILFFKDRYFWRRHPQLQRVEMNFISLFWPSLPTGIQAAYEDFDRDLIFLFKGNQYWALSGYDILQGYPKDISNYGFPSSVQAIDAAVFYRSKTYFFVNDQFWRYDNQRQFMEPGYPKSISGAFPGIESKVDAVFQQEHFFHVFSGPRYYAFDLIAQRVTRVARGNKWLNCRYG

| Structure (SMILES) | Ki (MMP-8h) | Ki (MMP-2h) | Ki (MMP-9h) | Ki (MMP-13h) | Ki (MMP-14h) | Ki (MMP-10h) | Ki (MMP-12h) | Ki (MMP-3h) | Ki (MMP-8h; read-out: Ki MMP-8h) | Ki (MMP-2h; read-out: Ki MMP-2h) | Ki (MMP-9h; read-out: Ki MMP-9h) | Ki (MMP-13h; read-out: Ki MMP-13h) | Ki (MMP-14h; read-out: Ki MMP-14h) | Ki (MMP-10h; read-out: Ki MMP-10h) | Ki (MMP-12h; read-out: Ki MMP-12h) | Ki (MMP-3h; read-out: Ki MMP-3h) |
| --- | --- | --- | --- | --- | --- | --- | --- | --- | --- | --- | --- | --- | --- | --- | --- | --- |
| NC(=O)[C@H](CCC(=O)O)NC(=O)[C@H](CCC(=O)O)NC(=O)CCc1ccc(-c2ccsc2)cc1 [Compound 38, (S)-5-amino-4-((S)-4-carboxy-2-(3-(4-(thiophen-3-yl)phenyl)propanamido)butanamido)-5-oxopentanoic acid] | 52 nM | 225 nM | 141 nM | 532 nM | 410 nM | 446 nM | 12 nM | 337 nM |  |  |  |  |  |  |  |  |
| NC(=O)[C@H](CCC(=O)O)NC(=O)[C@H](CCC(=O)O)NC(=O)CCc1ccc(-c2cccc(CO)c2)cc1 [Compound 60, (S)-5-amino-4-((S)-4-carboxy-2-(3-(3′-(hydroxymethyl)biphenyl-4-yl)propanamido)butanamido)-5-oxopentanoic acid] |  |  |  |  |  |  |  |  | 809 nM | > 5000 nM | > 5000 nM | > 5000 nM | > 10000 nM | > 5000 nM | 52 nM | > 10000 nM |
| NC(=O)[C@H](CO)NC(=O)[C@H](CCC(=O)O)NC(=O)CCc1ccc(-c2ccc(-c3ccccc3)cc2)cc1 [Compound 68, (S)-5-((S)-1-amino-3-hydroxy-1-oxopropan-2-ylamino)-4-(3-(4′-phenylbiphenyl-4-yl)propanamido)-5-oxopentanoic acid] |  |  |  |  |  |  |  |  | 227 nM | 31 nM | > 1000 nM | 16.6 nM | > 1000 nM | 71 nM | 3.5 nM | 108 nM |
| Cc1csc(-c2ccc(CCC(=O)N[C@@H](CCC(=O)O)C(=O)N[C@@H](CCC(=O)O)C(N)=O)cc2)c1 [Compound 94, (S)-5-amino-4-((S)-4-carboxy-2-(3-(4-(4-methylthiophen-2-yl)phenyl)propanamido)butanamido)-5-oxopentanoic acid] |  |  |  |  |  |  |  |  | 233 nM | 868 nM | > 1000 nM | > 1000 nM | > 10000 nM | > 1000 nM | 22 nM | > 1000 nM |
| O=C(O)CC[C@H](NC(=O)CCc1ccc(-c2cccs2)cc1)C(=O)N1CCC[C@@H](CC(=O)O)C1 [Compound 89, (S)-5-((S)-3-(carboxymethyl)piperidin-1-yl)-5-oxo-4-(3-(4-(thiophen-2-yl)phenyl)propanamido)pentanoic acid] |  |  |  |  |  |  |  |  | 94 nM | 484 nM | > 1000 nM | > 1000 nM | > 1000 nM | > 5000 nM | 124 nM | > 100000 nM |
| NC(=O)[C@H](CCCC(=O)O)NC(=O)[C@H](CCC(=O)O)NC(=O)CCc1cc(-c2ccc(-c3cccc(Cl)c3)cc2)no1 [Compound 12, (S)-6-amino-5-((S)-4-carboxy-2-(3-(3-(3′-chlorobiphenyl-4-yl)isoxazol-5-yl)propanamido)butanamido)-6-oxohexanoic acid] |  |  |  |  |  |  |  |  | 452 nM | 150 nM | > 1000 nM | 52 nM | > 5000 nM | 51 nM | 8.2 nM | 129 nM |
| C[C@H](NC(=O)[C@H](CCC(=O)O)NC(=O)CCc1ccc(-c2ccccc2)cc1)C(N)=O [Compound 47, (S)-5-((S)-1-amino-1-oxopropan-2-ylamino)-4-(3-(biphenyl-4-yl)propanamido)-5-oxopentanoic acid] |  |  |  |  |  |  |  |  | 311 nM | > 1000 nM | > 1000 nM | > 1000 nM | > 5000 nM | > 1000 nM | 58 nM | > 10000 nM |
| NC(=O)[C@H](CCC(=O)O)NC(=O)[C@H](CCC(=O)O)NC(=O)CCc1ccc(-c2ncccn2)cc1 [Compound 32, (S)-5-amino-4-((S)-4-carboxy-2-(3-(4-(pyrimidin-2-yl)phenyl)propanamido)butanamido)-5-oxopentanoic acid] |  |  |  |  |  |  |  |  | > 1000 nM | > 5000 nM | > 1000 nM | 641 nM | > 1000 nM | > 5000 nM | 969 nM | > 1000 nM |
| NC(=O)[C@H](CCC(=O)O)NC(=O)[C@H](CC(=O)O)NC(=O)CCc1ccc(-c2cc(-c3ccccc3)cs2)cc1 [Compound 100, (S)-5-amino-4-((S)-3-carboxy-2-(3-(4-(4-phenylthiophen-2-yl)phenyl)propanamido)propanamido)-5-oxopentanoic acid] |  |  |  |  |  |  |  |  | 559 nM | 862 nM | > 1000 nM | 559 nM | > 1000 nM | > 1000 nM | 15.1 nM | > 1000 nM |
| NC(=O)CC[C@H](NC(=O)[C@H](CCC(=O)O)NC(=O)CCc1ccc(-c2ccc(-c3ccccc3)cc2)cc1)C(N)=O [Compound 62, (S)-5-((S)-1,5-diamino-1,5-dioxopentan-2-ylamino)-4-(3-(4′-phenylbiphenyl-4-yl)propanamido)-5-oxopentanoic acid] |  |  |  |  |  |  |  |  | 452 nM | 45 nM | > 1000 nM | 20 nM | > 1000 nM | 102 nM | 5.2 nM | 244 nM |
| NC(=O)[C@H](CO)NC(=O)[C@H](CCC(=O)O)NC(=O)CCc1ccc(-c2cccs2)cc1 [Compound 87, (S)-5-((S)-1-amino-3-hydroxy-1-oxopropan-2-ylamino)-5-oxo-4-(3-(4-(thiophen-2-yl)phenyl)propanamido)pentanoic acid] |  |  |  |  |  |  |  |  | 47 nM | 147 nM | > 1000 nM | > 1000 nM | > 1000 nM | 742 nM | 16.4 nM | > 10000 nM |
| NC(=O)[C@H](CCC(=O)O)NC(=O)[C@H](CCC(=O)O)NC(=O)CCc1ccc(-c2ccc(-c3nc4ccccc4s3)s2)cc1 [Compound 93, (S)-5-amino-4-((S)-2-(3-(4-(5-(benzo[d]thiazol-2-yl)thiophen-2-yl)phenyl)propanamido)-4-carboxybutanamido)-5-oxopentanoic acid] |  |  |  |  |  |  |  |  | 307 nM | > 1000 nM | > 1000 nM | 33 nM | > 5000 nM | 38.8 nM | 17 nM | > 1000 nM |
| NC(=O)[C@@H](CCC(=O)O)NC(=O)[C@H](CCC(=O)O)NC(=O)CCc1cc(-c2ccc(-c3cccc(Cl)c3)cc2)no1 [Compound 5, (R)-5-amino-4-((S)-4-carboxy-2-(3-(3-(3′-chlorobiphenyl-4-yl)isoxazol-5-yl)propanamido)butanamido)-5-oxopentanoic acid] |  |  |  |  |  |  |  |  | 552 nM | 112 nM | > 1000 nM | 53 nM | > 1000 nM | 44 nM | 8.9 nM | 240 nM |
| C[C@H](NC(=O)CCc1ccc(-c2ccc(-c3ccccc3)cc2)cc1)C(=O)N[C@@H](CCC(=O)O)C(N)=O [Compound 76, (S)-5-amino-4-((S)-2-(3-(4′-phenylbiphenyl-4-yl)propanamido)propanamido)-5-oxopentanoic acid] |  |  |  |  |  |  |  |  | > 1000 nM | 854 nM | > 5000 nM | 427 nM | > 5000 nM | > 10000 nM | 251 nM | 142 nM |
| NC(=O)[C@H](CCC(=O)O)NC(=O)[C@H](CC(=O)O)NC(=O)CCc1ccc(-c2ccc(-c3ccccc3)cc2)cc1 [Compound 74, (S)-5-amino-4-((S)-3-carboxy-2-(3-(4′-phenylbiphenyl-4-yl)propanamido)propanamido)-5-oxopentanoic acid] |  |  |  |  |  |  |  |  | 865 nM | 39 nM | > 1000 nM | 13.5 nM | > 1000 nM | 430 nM | 10.5 nM | 16 nM |
| NC(=O)[C@H](CCC(=O)O)NC(=O)[C@H](CCC(=O)O)NC(=O)CCc1ccc(-c2ccc(-c3ccccc3)s2)cc1 [Compound 92, (S)-5-amino-4-((S)-4-carboxy-2-(3-(4-(5-phenylthiophen-2-yl)phenyl)propanamido)butanamido)-5-oxopentanoic acid] |  |  |  |  |  |  |  |  | 381 nM | 279 nM | 874 nM | 200 nM | > 1000 nM | 156 nM | 2.58 nM | 108 nM |
| NC(=O)[C@H](Cc1c[nH]cn1)NC(=O)[C@H](CCC(=O)O)NC(=O)CCc1ccc(-c2ccccc2)cc1 [Compound 48, (S)-5-((S)-1-amino-3-(1H-imidazol-4-yl)-1-oxopropan-2-ylamino)-4-(3-(biphenyl-4-yl)propanamido)-5-oxopentanoic acid] |  |  |  |  |  |  |  |  | 339 nM | 847 nM | > 5000 nM | > 1000 nM | > 10000 nM | > 1000 nM | 75 nM | > 10000 nM |
| Cc1ccsc1-c1ccc(CCC(=O)N[C@@H](CCC(=O)O)C(=O)N[C@@H](CCC(=O)O)C(N)=O)cc1 [Compound 107, (S)-5-amino-4-((S)-4-carboxy-2-(3-(4-(3-methylthiophen-2-yl)phenyl)propanamido)butanamido)-5-oxopentanoic acid] |  |  |  |  |  |  |  |  | 766 nM | > 1000 nM | > 10000 nM | > 1000 nM | > 5000 nM | > 1000 nM | 84 nM | > 10000 nM |
